{
  "source": "patent US20120020876A1",
  "about": "“HEDGEHOG PATHWAY INHIBITORS” (priority 2009, published 2012)",
  "key": {"[1]": {"tested_on": "pancreatic ductal adenocarcinoma", "conditions": "cited from earlier work"}, "[2]": {"tested_on": "transplanted pancreatic tumors", "assay": "Proliferation of transplanted tumors (phospho-histone H3 immunohistochemistry)", "type": "in vivo, mouse", "conditions": "gemcitabine Q3Dx4", "method": "(§1) 1×10^6 cells suspended in 100 μL of PBS were injected subcutaneously into the flanks of nude mice (xenografts) or into immunocompetent mice (syngeneic). For syngeneic models, recipient mice were descended from mice used to generate the KPC PDA cell lines. Orthotopic tumors with MiaPaca2 were generated as previously described (Niedergethmann et al., Br J Cancer 97, 1432 (Nov. 19, 2007)). Long (L) and short (S) axes of each tumor were measured with calipers (for subcutaneous tumors) or ultrasound (for orthotopic tumors). Tumor volume (V) was calculated: V=(L×S^2)/2. Tumor volumes were normalized relative to the volume at the start of drug treatment for subcutaneous tumors. […] Tumor images were acquired using a pediatric ultrasound machine. This machine was not equipped for 3D reconstruction, so the same formula V=(L×S^2)/2 was used to estimate the tumor volumes and changes. […] When appropriate, a fifth dose was given on the final day four hours prior to necropsy for pharmacological analyses.\n(§2) Tissues were fixed in 10% formalin solution for 24 hours and transferred to 70% ethanol. Tissues were paraffin embedded, sectioned and rehydrated. For CD31 IHC, sections were unmasked in 10 mM EDTA, pH 8.0 in a pressure cooker. For all other antibodies, sections were unmasked in 10 mM citric acid in a pressure cooker. Endogenous peroxidases were quenched in 3% H2O2/PBS for 20 minutes. […]"}, "[3]": {"tested_on": "pancreatic tumors in KPC mice", "assay": "Survival study of tumor-bearing KPC mice", "type": "in vivo, mouse", "conditions": "KPC mice enrolled with 5-10 mm tumors", "method": "vehicles: 20 μL/g 0.85% NaCl+8 μL/g 5% HPBCD;\nCompound A: 40 mg/kg Compound A+20 μL/g 0.85% NaCl;\nFor survival studies, mice were enrolled following the detection of 5-10 mm diameter tumor by ultrasound. Tumors were quantified by 3D ultrasound twice weekly until endpoint."}, "[4]": {"tested_on": "transplanted pancreatic tumors", "assay": "Growth of subcutaneous and orthotopic transplanted pancreatic tumors", "type": "in vivo", "conditions": "transplantation models of human or mouse origin; gemcitabine Q3Dx4, 12 days", "method": "The human pancreatic cancer cell line AsPc1 was cultured according to instructions. Mouse pancreatic cancer cell lines […], […] and DT8082 were isolated from tumors arising in KPC mice using a modification of the protocol described by Schreiber et al., Gastroenterology (20004) 127:250. Briefly, a 3 mm^3 fragment of PDA was excised, washed in 10 mL of cold PBS, and then finely diced with sterile razors. Cells were incubated in 10 mL of collagenase solution at 37° C. for 30-45 minutes with mixing (1 mg/mL collagenase V in DMEM/F12). Cells were spun (100 rpm, 5 min.) and resuspended in 0.05% Trypsin/EDTA for 5 min. at 37° C., and then quenched with DMEM supplemented with 10% fetal calf serum and 96 μM CaCl2. Cells were washed 3 times with DMEM/F12 medium and plated in a 6-well Biocoat dish (Becton Dickenson) in the ductal cell medium. After 3-4 passages, cells were transferred to standard plastic tissue culture dishes and grown in DMEM+10% FCS. 1×10^6 cells suspended in 100 μL of PBS were injected subcutaneously into the flanks of nude mice (xenografts) or into immunocompetent mice (syngeneic). For syngeneic models, recipient mice were descended from mice used to generate the KPC PDA cell lines. […] Long (L) and short (S) axes of each tumor were measured with calipers (for subcutaneous tumors) or ultrasound (for orthotopic tumors). Tumor volume (V) was calculated: V=(L×S^2)/2. […]"}, "[5]": {"assay": "Gemcitabine (dFdC) in blood of normal mice by HPLC", "type": "in vivo, mouse"}, "KPC tumors [6]": {"tested_on": "KPC tumors", "assay": "Apoptosis in KPC tumors (Cleaved Caspase 3 immunohistochemistry)", "type": "in vivo, mouse", "method": "(§3) Tissues were fixed in 10% formalin solution for 24 hours and transferred to 70% ethanol. Tissues were paraffin embedded, sectioned and rehydrated. For CD31 IHC, sections were unmasked in 10 mM EDTA, pH 8.0 in a pressure cooker. For all other antibodies, sections were unmasked in 10 mM citric acid in a pressure cooker. Endogenous peroxidases were quenched in 3% H2O2/PBS for 20 minutes. Remaining steps were carried out with Vectastain ABC kits appropriate to the species of primary antibody (Vector Labs, Burlingame, Calif.) with the following modification: blocking serum was supplemented with Protein Blocking Agent (Immunotech/BeckmanCoulter, Fullerton, Calif.) diluted 1:50. Antigens were developed with DAB Peroxidase Substrate (Vector Labs). The following antibody dilutions were used: Phospho-Histone H3, 1:100 (#9701, Cell Signaling Technology); Cleaved Caspase 3, 1:100 (#9661, Cell Signaling Technology); CD31, 1:75 (SC-1506). Slides were counterstained with hematoxylin."}, "KPC pancreatic tumors": {"tested_on": "KPC pancreatic tumors", "assay": "Monitoring of KPC pancreatic tumor volume by 3D high resolution ultrasonography", "type": "in vivo, mouse", "conditions": "gemcitabine 100 mg/kg twice weekly, Compound A 40 ug/kg/day, or both", "from_the_text": "For survival studies, mice were enrolled following the detection of 5-10 mm diameter tumor by ultrasound. Tumors were quantified by 3D ultrasound twice weekly until endpoint. High resolution ultrasound (US) imaging of normal and diseased mouse pancreas using the Vevo 770 System with a 35 MHz RMV scanhead (Visual Sonics, Inc.). 3D images were produced using the 3D motor arm to collect serial images at 0.25 mm intervals through the thickness of the tumor. Tumors were outlined on each 2D image and reconstructed to quantify the 3D volume using the integrated Vevo 770 software package."}, "[7]": {"assay": "19F NMR of fluorinated gemcitabine metabolites in tissue", "type": "in vivo, mouse", "conditions": "six hours after gemcitabine dosage; pilot experiments", "method": "Mice were treated with indicated regiments for 12 days. […] Tissues were rapidly dissected and snap frozen in liquid nitrogen. Tissue specimens were maintained at −80° C. until subjected to nucleotide extraction. Samples were homogenized in a Qiagen TissueLyser with a 5 mm ball bearing for 2×6 minutes at 25 KHz, in the presence of 4 volumes of ice-cold acetonitrile (μL acetonitrile=4×[…] of tissue). An equal volume of water was added and then the sample was spun at 14,000 rpm for 10 minutes at 4° C. Supernatant was freeze dried, resuspended in 600 μL of D2O and transferred to a 5 mm standard NMR tube (Wilmad) for ^19F NMR analysis on a Bruker 600 MHZ (14.1T) Avance NMR spectrometer using a QNP probe. Acquisition parameters included a 1D pulse sequence of ^19F observation and inverse-gated ^1H decoupling, spectral sweep width of 177 ppm (100000 Hz), 4096 scans and 1.65 sec of repetition time. Total acquisition time for each sample was about 1 hr 55 min. Trichloro-fluoro-methane was used for ^19F NMR chemical shift calibrations. A broad hump observed in the baseline of ^19F NMR spectra was removed by application of Linear-prediction (LP) back projection to the time domain data by using 2000 (number of LP) coefficients and 128 back-prediction points prior to Fourier transformation and phase correction. […]"}, "KPC tumors [8]": {"tested_on": "KPC tumors", "assay": "Proliferation of KPC tumors (phospho-histone H3 immunohistochemistry)", "type": "in vivo, mouse", "conditions": "4 days or 8-12 days of treatment", "method": "as §3"}, "KPC tumors [9]": {"tested_on": "KPC tumors", "assay": "Histology (H&E) of treated KPC tumors", "type": "in vivo, mouse", "conditions": "KPC tumors after 8-12 days of treatment"}, "[10]": {"tested_on": "transplanted pancreatic tumors", "assay": "Apoptosis in transplanted tumors (cleaved caspase 3 immunohistochemistry)", "type": "in vivo, mouse", "conditions": "gemcitabine Q3Dx4", "method": "as §1, §2"}, "[11]": {"assay": "Determination of dFdCTP in tissues by HPLC", "type": "in vivo, mouse", "conditions": "50 or 100 mg/kg gemcitabine i.p., 4 h", "method": "Tissues were rapidly dissected and snap frozen in liquid nitrogen. Specimens were maintained at −80° C. until nucleotide extraction. Specimens were ground under liquid nitrogen with a mortar and pestle. The powdered contents were suspended in 0.4N perchloric acid and sonicated in an ice bath. Solids were removed by centrifugation, the pellet was washed with perchloric acid, and the supernatants were combined. Following neutralization with KOH and removal of KClO4 by centrifugation, a portion of the supernatant was analyzed by high-pressure liquid chromatography. The amount of gemcitabine triphosphate was normalized to the ATP level determined in the same sample analysis. Samples with inadequate concentrations of ATP were excluded from analysis."}, "[12]": {"assay": "Vascular labeling and drug diffusion: doxorubicin delivery by confocal microscopy", "type": "in vivo, mouse", "conditions": "in comparison to control tissues and transplanted tumors; i.v. with lectin", "method": "To assess the functional vasculature, biotin-conjugated Lycopersicon esculentum lectin (B1175-1 mg, Vector Laboratories) was resuspended in 425 μL PBS and mixed with 75 μL of 1 mg/mL Streptavidin-AlexaFluor 633 (S21375, Molecular Probes) (in sterile PBS). Prior to use, the lectin-avidin mixture was centrifuged 14,000 k on a microfuge for 10 minutes to remove any particulate. Fifteen minutes prior to euthanasia, 100 μl (0.4 mg total) of the conjugated lectin was administered as a slow intravenous infusion over 5 minutes, and the hemodynamics monitored closely to ensure that it was tolerated. For doxorubicin experiments, five minutes prior to euthanasia mice were also infused with a 20 mg/kg doxorubicin solution (D-1515.10 mg, in sterile saline, Sigma) over one minute.\nWhile under terminal anesthesia, mice were perfused with 4% paraformaldehyde in PBS, pH 7.4. Perfused tissues were harvested, fixed overnight in 4% paraformaldehyde in PBS, pH 7.4 and transferred to 70% ethanol. Tissues were embedded in paraffin, sectioned, rehydrated, and counterstained with DAPI. The lectin labeling experiments were reproduced independently in a second laboratory (SRH, KI).\nMice were infused with 30 ml of 4% PFA pH 7.4 using a Harvard Apparatus PhD 2000 syringe pump at a rate of […]. […] Doxorubicin fluorescence was excited with a 488 nm laser, and emission was detected in a range from 520-620 nm. […]"}, "[13]": {"assay": "Gd-DTPA delivery by DCE-MRI", "type": "in vivo, mouse", "conditions": "0.1 mmol/kg Gd-DTPA", "method": "Magnetic resonance imaging experiments were carried out on a Varian MRI system (Varian, Inc, Palo Alto, Calif., USA) equipped with a 9.4T horizontal bore cryo-cooled superconducting magnet of 210 mm bore and a gradient set of strength 40 G/cm, 120 μsec risetime and internal diameter 120 mm. The imaging probe used was a Varian Millipede of 40 mm internal diameter. Mice were anaesthetized with Hypnorm/Hypnovel. Anatomical images were obtained using coronal T2-weighted fast spin-echo (repetition time TR=2000 ms, effective echo time TE=25 ms, echo train length 8 echoes, 512×512 points, field of view 80×80 mm, slice thickness/gap 1.5/0.5 mm, 12-15 slices) with chemical shift-selective fat suppression and respiratory gating. All other images were matched to the slice positions and field of view of the anatomical images. […] DCE-MRI data were analyzed in software custom-written in MATLAB 7.4 (The Mathworks, Inc, Natick, Mass., USA) using the model of Tofts and Kermode to evaluate the pharmacokinetic parameters Ktrans and ve, and additionally calculating the area under the [gadolinium]-time curve over the first 60 seconds post-injection (IAUGC60), as recommended by a panel of experts for vascular-related studies in oncology."}},
  "note": "Entries after “also recorded” stand apart in the source; their conditions may differ.",
  "data": [
    {"smiles": "Nc1ccn([C@@H]2O[C@H](CO)[C@@H](O)C2(F)F)c(=O)n1", "note": "[gemcitabine, 2′,2′-difluorodeoxycytidine]", "values": [
      {"measurement": "extension of survival", "setting": "[1]; pancreatic ductal adenocarcinoma, standard-of-care therapy", "result": "a few weeks"},
      {"measurement": "patients with objective radiographic response at the primary tumor site", "setting": "[1]; patients, Tempero et al. 2003", "result": "5-10%"},
      {"measurement": "proliferative rate of transplanted tumors", "setting": "[2]", "result": "significantly lower proliferative rates"},
      {"measurement": "effect on survival of KPC mice", "setting": "[3]", "result": "Neither gemcitabine nor Compound A treatment had an effect on the survival"},
      {"measurement": "tumor growth of transplanted tumors", "setting": "[4]", "result": "substantial inhibition of tumor growth"},
      {"measurement": "half-life of gemcitabine in circulating blood", "setting": "[5]", "result": "short half-life"},
      {"measurement": "apoptosis in KPC tumors", "setting": "KPC tumors [6]", "result": "unchanged in most KPC tumors"},
      {"measurement": "objective (ultrasonographic) response, responding mice/treated mice", "setting": "KPC pancreatic tumors", "result": "2/10"},
      {"measurement": "19F signals in PDA and control tissues", "setting": "[7]", "result": "absent"},
      {"measurement": "proliferation of KPC tumors", "setting": "KPC tumors [8]", "result": "significantly diminished; also recorded: decreased"},
      {"measurement": "tumor stroma / histological pattern", "setting": "KPC tumors [9]", "result": "dense stromal matrix"},
      {"measurement": "apoptosis in transplanted tumors", "setting": "[10]", "result": "no significant changes in apoptosis"},
      {"measurement": "dFdCTP in KPC tumors", "setting": "[11]", "result": "absent"},
      {"measurement": "dFdCTP in transplanted tumor tissues and control tissues", "setting": "[11]", "result": "present"}
    ]},
    {"smiles": "COc1cccc2c1C(=O)c1c(O)c3c(c(O)c1C2=O)C[C@@](O)(C(=O)CO)C[C@@H]3O[C@H]1C[C@H](N)[C@H](O)[C@H](C)O1", "note": "[doxorubicin]", "values": [
      {"measurement": "doxorubicin delivery to KPC pancreatic tumors", "setting": "[12]", "result": "marked decrease in doxorubicin delivery"}
    ]},
    {"smiles": "O=C([O-])CN(CCN(CC(=O)[O-])CC(=O)O)CCN(CC(=O)[O-])CC(=O)O.[Gd+3]", "note": "[Gd-DTPA, gadolinium-diethyltriaminepentaacetic acid]", "values": [
      {"measurement": "Gd-DTPA enhancement within KPC tumors", "setting": "[13]", "result": "little or no enhancement within the tumor body"}
    ]}
  ]
}
